Experimental data as given in patent US20110105623A1 (Biogenic Innovations, LLC, priority 2009, published 2011).

Experiments:
[1] = system: Bacillus coagulans; assay: Probiotic growth in media supplemented with MSM; assay type: cell-based; conditions: […] MSM
Excerpt: (§1) Plates were then counted. […] Data are presented in Cfu/mL.

[2] = system: Lactobacillus acidophilus; assay: Probiotic growth in media supplemented with MSM; assay type: cell-based
Excerpt: as §1

## Methylsulfonylmethane [MSM]
[1]; 64 h
  Growth of Bacillus coagulans: 10.97 log10 CFU/mL
[1]; 72 h
  Growth of Bacillus coagulans: 11.05 log10 CFU/mL
[2]; 0.125% MSM, 0 h
  Growth of Lactobacillus acidophilus: 1.37 log10 CFU/mL
[2]; 0.125% MSM, 8 h
  Growth of Lactobacillus acidophilus: 2.19 log10 CFU/mL
[2]; 0.125% MSM, 16 h
  Growth of Lactobacillus acidophilus: 4.83 log10 CFU/mL
[2]; 0.125% MSM, 24 h
  Growth of Lactobacillus acidophilus: 7.14 log10 CFU/mL
[2]; 0.125% MSM, 32 h
  Growth of Lactobacillus acidophilus: 9.15 log10 CFU/mL
[2]; 0.125% MSM, 40 h
  Growth of Lactobacillus acidophilus: 9.53 log10 CFU/mL
[2]; 0.125% MSM, 48 h
  Growth of Lactobacillus acidophilus: 9.59 log10 CFU/mL
[2]; 0.125% MSM, 56 h
  Growth of Lactobacillus acidophilus: 10.16 log10 CFU/mL
[2]; 0.125% MSM, 64 h
  Growth of Lactobacillus acidophilus: 9.40 log10 CFU/mL
[2]; 0.125% MSM, 72 h
  Growth of Lactobacillus acidophilus: 8.56 log10 CFU/mL
[2]; 0.2% MSM, 0 h
  Growth of Lactobacillus acidophilus: 1.37 log10 CFU/mL
[2]; 0.2% MSM, 8 h
  Growth of Lactobacillus acidophilus: 1.43 log10 CFU/mL
[2]; 0.2% MSM, 16 h
  Growth of Lactobacillus acidophilus: 5.74 log10 CFU/mL
[2]; 0.2% MSM, 24 h
  Growth of Lactobacillus acidophilus: 8.19 log10 CFU/mL
[2]; 0.2% MSM, 32 h
  Growth of Lactobacillus acidophilus: 9.85 log10 CFU/mL
[2]; 0.2% MSM, 40 h
  Growth of Lactobacillus acidophilus: 9.50 log10 CFU/mL
[2]; 0.2% MSM, 48 h
  Growth of Lactobacillus acidophilus: 9.32 log10 CFU/mL
[2]; 0.2% MSM, 56 h
  Growth of Lactobacillus acidophilus: 9.26 log10 CFU/mL
[2]; 0.2% MSM, 64 h
  Growth of Lactobacillus acidophilus: 9.37 log10 CFU/mL
[2]; 0.2% MSM, 72 h
  Growth of Lactobacillus acidophilus: 8.36 log10 CFU/mL
[2]; 0.50% MSM, 0 h
  Growth of Lactobacillus acidophilus: 1.30 log10 CFU/mL
[2]; 0.50% MSM, 8 h
  Growth of Lactobacillus acidophilus: 2.01 log10 CFU/mL
[2]; 0.50% MSM, 16 h
  Growth of Lactobacillus acidophilus: 3.82 log10 CFU/mL
[2]; 0.50% MSM, 24 h
  Growth of Lactobacillus acidophilus: 6.47 log10 CFU/mL
[2]; 0.50% MSM, 32 h
  Growth of Lactobacillus acidophilus: 9.15 log10 CFU/mL
[2]; 0.50% MSM, 40 h
  Growth of Lactobacillus acidophilus: 9.58 log10 CFU/mL
[2]; 0.50% MSM, 48 h
  Growth of Lactobacillus acidophilus: 10.45 log10 CFU/mL
[2]; 0.50% MSM, 56 h
  Growth of Lactobacillus acidophilus: 9.33 log10 CFU/mL
[2]; 0.50% MSM, 64 h
  Growth of Lactobacillus acidophilus: 9.53 log10 CFU/mL
[2]; 0.50% MSM, 72 h
  Growth of Lactobacillus acidophilus: 8.57 log10 CFU/mL
[2]; 1% MSM, 0 h
  Growth of Lactobacillus acidophilus: 1.48 log10 CFU/mL
[2]; 1% MSM, 8 h
  Growth of Lactobacillus acidophilus: 2.25 log10 CFU/mL
[2]; 1% MSM, 16 h
  Growth of Lactobacillus acidophilus: 3.79 log10 CFU/mL
[2]; 1% MSM, 24 h
  Growth of Lactobacillus acidophilus: 6.77 log10 CFU/mL
[2]; 1% MSM, 32 h
  Growth of Lactobacillus acidophilus: 9.05 log10 CFU/mL
[2]; 1% MSM, 40 h
  Growth of Lactobacillus acidophilus: 9.49 log10 CFU/mL
[2]; 1% MSM, 48 h
  Growth of Lactobacillus acidophilus: 10.98 log10 CFU/mL
[2]; 1% MSM, 56 h
  Growth of Lactobacillus acidophilus: 10.90 log10 CFU/mL
[2]; 1% MSM, 64 h
  Growth of Lactobacillus acidophilus: 10.34 log10 CFU/mL
[2]; 1% MSM, 72 h
  Growth of Lactobacillus acidophilus: 8.68 log10 CFU/mL
[2]; 5% MSM, 0 h
  Growth of Lactobacillus acidophilus: 1.52 log10 CFU/mL
[2]; 5% MSM, 8 h
  Growth of Lactobacillus acidophilus: 1.37 log10 CFU/mL
[2]; 5% MSM, 16 h
  Growth of Lactobacillus acidophilus: 2.69 log10 CFU/mL
[2]; 5% MSM, 24 h
  Growth of Lactobacillus acidophilus: 5.36 log10 CFU/mL
[2]; 5% MSM, 32 h
  Growth of Lactobacillus acidophilus: 8.91 log10 CFU/mL
[2]; 5% MSM, 40 h
  Growth of Lactobacillus acidophilus: 9.25 log10 CFU/mL
[2]; 5% MSM, 48 h
  Growth of Lactobacillus acidophilus: 10.88 log10 CFU/mL
[2]; 5% MSM, 56 h
  Growth of Lactobacillus acidophilus: 10.01 log10 CFU/mL
[2]; 5% MSM, 64 h
  Growth of Lactobacillus acidophilus: 8.95 log10 CFU/mL
[2]; 5% MSM, 72 h
  Growth of Lactobacillus acidophilus: 6.66 log10 CFU/mL
[2]; […] MSM, 0 h
  Growth of Lactobacillus acidophilus: 1.48 log10 CFU/mL
[2]; […] MSM, 8 h
  Growth of Lactobacillus acidophilus: 2.20 log10 CFU/mL
[2]; […] MSM, 16 h
  Growth of Lactobacillus acidophilus: 4.24 log10 CFU/mL
[2]; […] MSM, 24 h
  Growth of Lactobacillus acidophilus: 5.78 log10 CFU/mL
[2]; […] MSM, 32 h
  Growth of Lactobacillus acidophilus: 9.16 log10 CFU/mL
[2]; […] MSM, 40 h
  Growth of Lactobacillus acidophilus: 9.35 log10 CFU/mL
[2]; […] MSM, 48 h
  Growth of Lactobacillus acidophilus: 10.16 log10 CFU/mL
[2]; […] MSM, 56 h
  Growth of Lactobacillus acidophilus: 11.10 log10 CFU/mL
[2]; […] MSM, 64 h
  Growth of Lactobacillus acidophilus: 11.58 log10 CFU/mL
[2]; […] MSM, 72 h
  Growth of Lactobacillus acidophilus: 8.44 log10 CFU/mL
